In ChEMBL document CHEMBL4819116, “Design, synthesis, and biological evaluation of stapled ascaphin-8 peptides” (Bioorg Med Chem, 2021):
Where a SMILES comes first, the peptide text is derived from it. Bridges are numbered along the chain shown (N, C = ends). [ ]: non-standard residue; d: D form. S8 = C=CCCCCCC[C@](C)(N)C(=O)O; S5 = C=CCCC[C@](C)(N)C(=O)O

Key:
[1] = Helicity of the compound in TFE aqueous solution by CD spectroscopy; type: physicochemical; settings: buffer
[2] = Hemolytic activity in rabbit red blood cells assessed as hemoglobin release; type: ADME, cell-based, Oryctolagus cuniculus, Erythrocyte
LNCaP C4-2B = experiment: Cytotoxicity against human LNCaP C4-2B cells assessed as reduction in cell viability measured after 96 hrs b y CCK-8 assay; type: functional, cell-based
A549 [3] = experiment: Cytotoxicity against human A549 cells assessed as reduction in cell viability measured after 96 hrs b y CCK-8 assay; type: functional, cell-based; settings: A549, 96 h
HEK-293T = experiment: Cytotoxicity against human HEK293T cells assessed as reduction in cell viability measured after 96 hrs b y CCK-8 assay; type: cell-based
trypsin [4] = target: T1, trypsin (Homo sapiens, UniProt P07477+P07478+P35030); experiment: Stability of the compound assessed as trypsin (unknown origin)-mediated degradation by measuring half life using pH 7.4 PBS buffer by HPLC analysis; type: ADME, protein assay; settings: trypsin in PBS buffer
trypsin [5] = target: T1, trypsin; experiment: Stability of the compound assessed as trypsin (unknown origin)-mediated degradation using pH 7.4 PBS buffer measured for 60 mins by HPLC analysis; type: ADME, protein assay; settings: trypsin in PBS buffer, read-out: Drug degradation
A549 [6] = experiment: Antimigratory activity against human A549 cells assessed as inhibition of cell migration measured for 24 hrs by crystal violet staining - light microscopy based transwell migration assay; type: functional; settings: dose 0-4 µM
A549 [7] = experiment: Inhibition of colony formation in human A549 cells measured after 14 days by crystal violet staining based light microscopy; type: functional, cell-based; settings: dose 0-4 µM, time 14.0 day

Activity [1] [%]	half-life (trypsin [4]) [min]	metabolised at 1 h (trypsin [5]) [%]	Compound	HC50 [2] [µM]	IC50 (LNCaP C4-2B) [µM]	IC50 (A549 [3]) [µM]	IC50 (HEK-293T) [µM]	Activity (A549 [6])	inhibition (A549 [7])
42			CC(C)C[C@H](NC(=O)[C@H](C)NC(=O)[C@H](CCCCN)NC(=O)[C@H](C)NC(=O)[C@H](C)NC(=O)[C@]1(C)CCC/C=C\CCC[C@](C)(NC(=O)[C@H](CCCCN)NC(=O)[C@H](Cc2ccccc2)NC(=O)CN)C(=O)N[C@@H](CC(C)C)C(=O)N[C@@H](CC(C)C)C(=O)N[C@@H](CCCCN)C(=O)N1)C(=O)N[C@H](C(=O)N[C@@H](CCCCN)C(=O)N[C@H](C(=O)N[C@H](C(=O)N[C@@H](CC(C)C)C(=O)N[C@@H](Cc1ccccc1)C(N)=O)C(C)C)[C@@H](C)O)C(C)C (H-GFK[S5]LLK[S5]AAKALVKTVLF-NH2; staple (Z) 4-8)	79.9	11.1	4.1	33.9		
48			CC(C)C[C@H](NC(=O)[C@H](CC(=O)O)NC(=O)[C@H](CCCCN)NC(=O)[C@H](Cc1ccccc1)NC(=O)CN)C(=O)N[C@@H](CC(C)C)C(=O)N[C@@H](CCCCN)C(=O)N[C@@]1(C)CCC/C=C\CCC[C@@](C)(C(=O)N[C@@H](CC(C)C)C(=O)N[C@H](C(=O)N[C@@H](CCCCN)C(=O)N[C@H](C(=O)N[C@H](C(=O)N[C@@H](CC(C)C)C(=O)N[C@@H](Cc2ccccc2)C(N)=O)C(C)C)[C@@H](C)O)C(C)C)NC(=O)[C@H](CCCCN)NC(=O)[C@H](C)NC(=O)[C@H](C)NC1=O (H-GFKDLLK[S5]AAK[S5]LVKTVLF-NH2; staple (Z) 8-12)	40.2	7.88	2.57	19.7		
80			CC(C)C[C@@H]1NC(=O)[C@H](C)NC(=O)[C@H](CCCCN)NC(=O)[C@H](C)NC(=O)[C@@](C)(NC(=O)CNC(=O)[C@H](CCCCN)NC(=O)[C@H](CC(C)C)NC(=O)[C@H](CC(C)C)NC(=O)[C@H](CC(=O)O)NC(=O)[C@H](CCCCN)NC(=O)[C@H](Cc2ccccc2)NC(=O)CN)CCCCCC/C=C/CCC[C@@](C)(C(=O)N[C@H](C(=O)N[C@@H](CC(C)C)C(=O)N[C@@H](Cc2ccccc2)C(N)=O)C(C)C)NC(=O)[C@H](CCCCN)NC(=O)[C@H](C(C)C)NC1=O (H-GFKDLLKG[S8]AKALVK[S5]VLF-NH2; staple (E) 9-16)	90.5	17.3	11.7	44.3		
47	14	100	H-GFKDLLKGAAKALVKTVLF-NH2 [Ascaphin-8]	> 100	42.9	33.8	53.7		
51	36		CC(C)C[C@H](NC(=O)[C@H](CC(C)C)NC(=O)[C@H](CC(=O)O)NC(=O)[C@H](CCCCN)NC(=O)[C@H](Cc1ccccc1)NC(=O)CN)C(=O)N[C@@H](CCCCN)C(=O)NCC(=O)N[C@@H](C)C(=O)N[C@@H](C)C(=O)N[C@@H](CCCCN)C(=O)N[C@@]1(C)CCC/C=C\CCC[C@@](C)(C(=O)N[C@H](C(=O)N[C@@H](CC(C)C)C(=O)N[C@@H](Cc2ccccc2)C(N)=O)C(C)C)NC(=O)[C@H](CCCCN)NC(=O)[C@H](C(C)C)NC(=O)[C@H](CC(C)C)NC1=O (H-GFKDLLKGAAK[S5]LVK[S5]VLF-NH2; staple (Z) 12-16)	40.6	7.17	2.39	16.4	Dose-Dependent Effect	Dose-Dependent Effect
